Assay results: PMC8330742, “New benzothieno[2,3-c]pyridines as non-steroidal CYP17 inhibitors: design, synthesis, anticancer screening, apoptosis induction, and in silico ADME profile studies” (Journal of Enzyme Inhibition and Medicinal Chemistry, 2021)

How the values were obtained:
NCI-H226 = experiment: NCI-60 SRB screen; format: cell-based, human; details: Homo sapiens; NCI-H226; single dose 10^−5 M; read-out: Growth inhibition (%)
TK-10 = experiment: NCI-60 SRB screen; format: cell-based, human; details: Homo sapiens; TK-10; single dose 10^−5 M; read-out: Growth inhibition (%)
A549/ATCC = experiment: NCI-60 SRB screen; format: cell-based, human; details: Homo sapiens, single dose 10^−5 M, read-out: Growth inhibition (%)
COLO 205 = experiment: NCI-60 SRB screen; format: cell-based, human; details: Homo sapiens; COLO 205; single dose 10^−5 M; read-out: Growth inhibition (%)
SN12C = experiment: NCI-60 SRB screen; format: cell-based, human; details: Homo sapiens, SN12C; SN 12 C; single dose 10^−5 M; read-out: Growth inhibition (%)
MOLT-4 = experiment: NCI-60 SRB screen; format: cell-based; details: Homo sapiens; MOLT-4; single dose 10^−5 M; read-out: Growth inhibition (%)
ACHN = experiment: NCI-60 SRB screen; format: cell-based; details: Homo sapiens, single dose 10^−5 M, read-out: Growth inhibition (%)
RXF 393 = experiment: NCI-60 SRB screen; format: cell-based, human; details: Homo sapiens; RXF 393; single dose 10^−5 M; read-out: Growth inhibition (%)
OVCAR-3 = experiment: NCI-60 SRB screen; format: cell-based, human; details: Homo sapiens; OVCAR-3; single dose 10^−5 M; read-out: Growth inhibition (%)
SR = experiment: NCI-60 SRB screen; format: cell-based; details: Homo sapiens, single dose 10^−5 M, read-out: Growth inhibition (%)
UO-31 = experiment: NCI-60 SRB screen; format: cell-based, human; details: Homo sapiens; UO-31; single dose 10^−5 M; read-out: Growth inhibition (%)
K-562 = experiment: NCI-60 SRB screen; format: cell-based, human; details: Homo sapiens, K562; K-562; single dose 10^−5 M; read-out: Growth inhibition (%)
HCT-15 = experiment: NCI-60 SRB screen; format: cell-based, human; details: Homo sapiens; HCT-15; single dose 10^−5 M; read-out: Growth inhibition (%)
HOP-92 = experiment: NCI-60 SRB screen; format: cell-based, human; details: Homo sapiens; HOP-92; single dose 10^−5 M; read-out: Growth inhibition (%)
SF-268 = experiment: NCI-60 SRB screen; format: cell-based, human; details: Homo sapiens; SF-268; single dose 10^−5 M; read-out: Growth inhibition (%)
CAKI-1 = experiment: NCI-60 SRB screen; format: cell-based, human; details: Homo sapiens; CAKI-1; single dose 10^−5 M; read-out: Growth inhibition (%)
HOP-62 = experiment: NCI-60 SRB screen; format: cell-based, human; details: Homo sapiens; HOP-62; single dose 10^−5 M; read-out: Growth inhibition (%)
SK-MEL-5 = experiment: NCI-60 SRB screen; format: cell-based, human; details: Homo sapiens; SK-MEL-5; single dose 10^−5 M; read-out: Growth inhibition (%)
NCI-H460 = experiment: NCI-60 SRB screen; format: cell-based, human; details: Homo sapiens; NCI-H460; single dose 10^−5 M; read-out: Growth inhibition (%)
LOX IMVI = experiment: NCI-60 SRB screen; format: cell-based, human; details: Homo sapiens, single dose 10^−5 M, read-out: Growth inhibition (%)
KM12 = experiment: NCI-60 SRB screen; format: cell-based, human; details: Homo sapiens; KM12; single dose 10^−5 M; read-out: Growth inhibition (%)
HT-29 = experiment: NCI-60 SRB screen; format: cell-based; details: Homo sapiens; HT-29; single dose 10^−5 M; read-out: Growth inhibition (%)
SK-MEL-28 = experiment: NCI-60 SRB screen; format: cell-based; details: Homo sapiens; SK-MEL-28; single dose 10^−5 M; read-out: Growth inhibition (%)
SK-MEL-2 = experiment: NCI-60 SRB screen; format: cell-based, human; details: Homo sapiens; SK-MEL-2; single dose 10^−5 M; read-out: Growth inhibition (%)
HCT-116 = experiment: NCI-60 SRB screen; format: cell-based, human; details: Homo sapiens; HCT-116; single dose 10^−5 M; read-out: Growth inhibition (%)
M14 = experiment: NCI-60 SRB screen; format: cell-based, human; details: Homo sapiens; M14; single dose 10^−5 M; read-out: Growth inhibition (%)
CCRF-CEM = experiment: NCI-60 SRB screen; format: cell-based; details: Homo sapiens, single dose 10^−5 M, read-out: Growth inhibition (%)
786-0 = experiment: NCI-60 SRB screen; format: cell-based; details: Homo sapiens; 786-0; single dose 10^−5 M; read-out: Growth inhibition (%)
UACC-62 = experiment: NCI-60 SRB screen; format: cell-based, human; details: Homo sapiens; UACC-62; single dose 10^−5 M; read-out: Growth inhibition (%)
UACC-257 = experiment: NCI-60 SRB screen; format: cell-based, human; details: Homo sapiens, UACC-257; UACC-275 (so in the source); single dose 10^−5 M; read-out: Growth inhibition (%)
NCI-H322M = experiment: NCI-60 SRB screen; format: cell-based, human; details: Homo sapiens, single dose 10^−5 M, read-out: Growth inhibition (%)
IGROV1 = experiment: NCI-60 SRB screen; format: cell-based, human; details: Homo sapiens, IGROV-1; IGROV1; single dose 10^−5 M; read-out: Growth inhibition (%)
SK-OV-3 = experiment: NCI-60 SRB screen; format: cell-based, human; details: Homo sapiens; SK-OV-3; single dose 10^−5 M; read-out: Growth inhibition (%)
NCI/ADR-RES = experiment: NCI-60 SRB screen; format: cell-based, human; details: Homo sapiens, single dose 10^−5 M, read-out: Growth inhibition (%)
SF-295 = experiment: NCI-60 SRB screen; format: cell-based, human; details: Homo sapiens; SF-295; single dose 10^−5 M; read-out: Growth inhibition (%)
[1] = system: panel of 60 cancer cell lines; experiment: NCI-60 SRB screen, mean or range over the panel; format: cell-based, human; details: Homo sapiens; mean over the cell lines; single dose 10^−5 M; read-out: Mean growth inhibition (%)
NCI-H23 = experiment: NCI-60 SRB screen; format: cell-based, human; details: Homo sapiens; NCI-H23; single dose 10^−5 M; read-out: Growth inhibition (%)
OVCAR-4 = experiment: NCI-60 SRB screen; format: cell-based, human; details: Homo sapiens; OVCAR-4; single dose 10^−5 M; read-out: Growth inhibition (%)
NCI-H522 = experiment: NCI-60 SRB screen; format: cell-based, human; details: Homo sapiens; NCI-H522; single dose 10^−5 M; read-out: Growth inhibition (%)
EKVX = experiment: NCI-60 SRB screen; format: cell-based, human; details: Homo sapiens, single dose 10^−5 M, read-out: Growth inhibition (%)
MALME-3M = experiment: NCI-60 SRB screen; format: cell-based, human; details: Homo sapiens, single dose 10^−5 M, read-out: Growth inhibition (%)
HL-60(TB) = experiment: NCI-60 SRB screen; format: cell-based, human; details: Homo sapiens; HL-60 (TB); single dose 10^−5 M; read-out: Growth inhibition (%)
MDA-MB-435 = experiment: NCI-60 SRB screen; format: cell-based; details: Homo sapiens, MDA-MB-435, read-out: Growth inhibition (%)
HCC-2998 = experiment: NCI-60 SRB screen; format: cell-based, human; details: Homo sapiens; HCC-2998; single dose 10^−5 M; read-out: Growth inhibition (%)
SW-620 = experiment: NCI-60 SRB screen; format: cell-based; details: Homo sapiens; SW-620; single dose 10^−5 M; read-out: Growth inhibition (%)

SMILES: COc1ccc(C2NC(=O)C(C#N)c3c2sc2c(F)cccc32)c(OC)c1 (stereo not drawn) [Compound 5a, 1-(2,4-Dimethoxyphenyl)-4-cyano-8-fluoro-1,2-dihydro[1]benzothieno [2,3-c]pyridin-3(4H)-one]
- inhibition at 10 µM (NCI-H226): 37.8%
- inhibition at 10 µM (TK-10): 1.9%
- inhibition at 10 µM (A549/ATCC): 41.5%
- inhibition at 10 µM (COLO 205): 11.7%
- inhibition at 10 µM (SN12C): 26.3%
- inhibition at 10 µM (MOLT-4): 28.6%
- inhibition at 10 µM (ACHN): 62.5%
- inhibition at 10 µM (RXF 393): 90.3%
- inhibition at 10 µM (OVCAR-3): 86.3%
- inhibition at 10 µM (SR): 86.1%
- inhibition at 10 µM (UO-31): 66%
- inhibition at 10 µM (K-562): 76.1%
- inhibition at 10 µM (HCT-15): 63.6%
- inhibition at 10 µM (HOP-92): 57.8%
- inhibition at 10 µM (SF-268): 48.9%
- inhibition at 10 µM (CAKI-1): 78.7%
- inhibition at 10 µM (HOP-62): 42.6%
- inhibition at 10 µM (SK-MEL-5): 18.2%
- inhibition at 10 µM (NCI-H460): 68.2%
- inhibition at 10 µM (LOX IMVI): 60.3%
- inhibition at 10 µM (KM12): 69%
- inhibition at 10 µM (HT-29): 36%
- inhibition at 10 µM (SK-MEL-28): 45.9%
- inhibition at 10 µM (SK-MEL-2): 35.9%
- inhibition at 10 µM (HCT-116): 77.2%
- inhibition at 10 µM (M14): 62.2%
- inhibition at 10 µM (CCRF-CEM): 28.1%
- inhibition at 10 µM (786-0): 31.6%
- inhibition at 10 µM (UACC-62): 58.8%
- inhibition at 10 µM (UACC-257): 31.8%
- inhibition at 10 µM (NCI-H322M): 9.6%
- inhibition at 10 µM (IGROV1): 48.2%
- inhibition at 10 µM (SK-OV-3): 49.3%
- inhibition at 10 µM (NCI/ADR-RES): 84.4%
- inhibition at 10 µM (SF-295): 72.4%
- inhibition at 10 µM [1]: 52.5%
- inhibition at 10 µM (NCI-H23): 35.2%
- inhibition at 10 µM (OVCAR-4): 46.3%
- inhibition at 10 µM (NCI-H522): 92%
- inhibition at 10 µM (EKVX): 20.7%
- inhibition at 10 µM (MALME-3M): 60.3%
- inhibition at 10 µM (HL-60(TB)): 43%
- inhibition at 10 µM (MDA-MB-435): -129%
- inhibition at 10 µM (HCC-2998): 11.7%
- inhibition at 10 µM (SW-620): 68.7%

SMILES: COc1ccc(C2NC(=O)C(C#N)c3c2sc2c(F)cccc32)cc1 (stereo not drawn) [Compound 5b, 4-Cyano-8-fluoro-1-(4-methoxyphenyl)-1,2-dihydro[1]benzothieno[2,3-c] pyridin-3(4H)-one]
- inhibition at 10 µM (NCI-H226): 39.8%
- inhibition at 10 µM (TK-10): -12.7%
- inhibition at 10 µM (A549/ATCC): 58.5%
- inhibition at 10 µM (COLO 205): 8.44%
- inhibition at 10 µM (SN12C): 38.6%
- inhibition at 10 µM (MOLT-4): 50.9%
- inhibition at 10 µM (ACHN): 55.5%
- inhibition at 10 µM (RXF 393): 44.1%
- inhibition at 10 µM (OVCAR-3): 99.4%
- inhibition at 10 µM (SR): 77.9%
- inhibition at 10 µM (UO-31): 64.2%
- inhibition at 10 µM (K-562): 86%
- inhibition at 10 µM (HCT-15): 66.5%
- inhibition at 10 µM (HOP-92): 45.9%
- inhibition at 10 µM (SF-268): 39%
- inhibition at 10 µM (CAKI-1): 60%
- inhibition at 10 µM (HOP-62): 54.6%
- inhibition at 10 µM (SK-MEL-5): 39.5%
- inhibition at 10 µM (NCI-H460): 71.4%
- inhibition at 10 µM (LOX IMVI): 54.4%
- inhibition at 10 µM (KM12): 60%
- inhibition at 10 µM (HT-29): 49.5%
- inhibition at 10 µM (SK-MEL-28): 47.4%
- inhibition at 10 µM (SK-MEL-2): 40%
- inhibition at 10 µM (HCT-116): 62.5%
- inhibition at 10 µM (M14): 66.7%
- inhibition at 10 µM (CCRF-CEM): 66%
- inhibition at 10 µM (786-0): 29.1%
- inhibition at 10 µM (UACC-62): 64.7%
- inhibition at 10 µM (UACC-257): 36.1%
- inhibition at 10 µM (NCI-H322M): 34.8%
- inhibition at 10 µM (IGROV1): 58.9%
- inhibition at 10 µM (SK-OV-3): 36.9%
- inhibition at 10 µM (NCI/ADR-RES): 70.7%
- inhibition at 10 µM (SF-295): 69.5%
- inhibition at 10 µM [1]: 52.5%
- inhibition at 10 µM (NCI-H23): 24.8%
- inhibition at 10 µM (OVCAR-4): 28.4%
- inhibition at 10 µM (NCI-H522): 79.9%
- inhibition at 10 µM (EKVX): 38.3%
- inhibition at 10 µM (MALME-3M): 52.9%
- inhibition at 10 µM (HL-60(TB)): 89.5%
- inhibition at 10 µM (MDA-MB-435): 109%
- inhibition at 10 µM (HCC-2998): 8.46%
- inhibition at 10 µM (SW-620): 75.7%
